Source: ChEMBL document CHEMBL5233229, “Recent advances in the development of ubiquitin-specific-processing protease 7 (USP7) inhibitors” (Eur J Med Chem, 2020)
Several values for one entry are separate records, joined by “and”; a condition that tells them apart may be missing. Equal values may be shown once.

Experiments:
[1] = target: T1, Ubiquitin carboxyl-terminal hydrolase 7 (Homo sapiens, UniProt Q93009); test: Inhibition of human USP7 using Ub-EKL as substrate by SDS-PAGE assay
[2] = target: T2, Ubiquitin carboxyl-terminal hydrolase 47 (Homo sapiens, UniProt Q96K76); test: Inhibition of human USP47 using Ub-EKL as substrate by SDS-PAGE assay
T2 sequence (Q96K76 whole entry): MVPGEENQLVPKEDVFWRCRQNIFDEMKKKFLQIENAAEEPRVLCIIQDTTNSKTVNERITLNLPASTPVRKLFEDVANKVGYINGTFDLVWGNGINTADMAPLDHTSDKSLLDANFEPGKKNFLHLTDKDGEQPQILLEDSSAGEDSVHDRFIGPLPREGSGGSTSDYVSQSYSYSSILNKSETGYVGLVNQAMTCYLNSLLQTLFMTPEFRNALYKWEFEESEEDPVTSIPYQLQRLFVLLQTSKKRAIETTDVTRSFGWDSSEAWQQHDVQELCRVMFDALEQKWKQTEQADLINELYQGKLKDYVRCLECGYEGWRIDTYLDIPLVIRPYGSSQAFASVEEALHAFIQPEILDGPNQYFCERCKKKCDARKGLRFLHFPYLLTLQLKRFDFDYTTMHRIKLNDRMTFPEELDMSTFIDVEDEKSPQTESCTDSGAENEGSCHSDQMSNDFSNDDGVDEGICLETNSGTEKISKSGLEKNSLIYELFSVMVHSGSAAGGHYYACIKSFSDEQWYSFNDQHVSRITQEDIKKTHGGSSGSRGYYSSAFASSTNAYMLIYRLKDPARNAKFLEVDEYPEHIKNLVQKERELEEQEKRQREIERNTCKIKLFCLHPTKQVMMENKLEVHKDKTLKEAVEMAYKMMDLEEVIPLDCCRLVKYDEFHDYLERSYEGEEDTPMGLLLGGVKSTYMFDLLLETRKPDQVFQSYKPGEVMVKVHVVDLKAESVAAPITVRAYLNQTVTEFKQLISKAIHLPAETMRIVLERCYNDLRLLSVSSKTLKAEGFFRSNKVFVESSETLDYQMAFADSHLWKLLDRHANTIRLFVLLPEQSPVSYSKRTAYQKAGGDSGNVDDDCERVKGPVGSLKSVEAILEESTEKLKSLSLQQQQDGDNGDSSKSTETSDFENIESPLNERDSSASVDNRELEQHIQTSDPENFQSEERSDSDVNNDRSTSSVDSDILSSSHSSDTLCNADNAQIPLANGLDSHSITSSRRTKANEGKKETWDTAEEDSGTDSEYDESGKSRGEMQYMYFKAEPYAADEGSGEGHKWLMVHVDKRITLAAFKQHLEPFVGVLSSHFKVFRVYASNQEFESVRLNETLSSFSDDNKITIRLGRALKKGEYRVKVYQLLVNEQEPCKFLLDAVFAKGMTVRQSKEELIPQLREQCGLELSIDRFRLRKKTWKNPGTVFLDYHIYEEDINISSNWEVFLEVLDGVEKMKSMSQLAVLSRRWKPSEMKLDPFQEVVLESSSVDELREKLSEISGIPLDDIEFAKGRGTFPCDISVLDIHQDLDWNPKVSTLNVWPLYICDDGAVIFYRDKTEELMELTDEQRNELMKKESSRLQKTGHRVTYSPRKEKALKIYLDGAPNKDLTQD

[3] = target: T1, Ubiquitin carboxyl-terminal hydrolase 7; test: Inhibition of human USP7 using human N-terminal GST-tagged UBA52 as substrate preincubated for 10 mins followed by substrate addition measured after 45 mins by coomassie brilliant blue staining-based SDS-PAGE analysis
[4] = target: T1, Ubiquitin carboxyl-terminal hydrolase 7; test: Inhibition of human USP7 using Ub-AMC as substrate

T1 sequence (Q93009 whole entry): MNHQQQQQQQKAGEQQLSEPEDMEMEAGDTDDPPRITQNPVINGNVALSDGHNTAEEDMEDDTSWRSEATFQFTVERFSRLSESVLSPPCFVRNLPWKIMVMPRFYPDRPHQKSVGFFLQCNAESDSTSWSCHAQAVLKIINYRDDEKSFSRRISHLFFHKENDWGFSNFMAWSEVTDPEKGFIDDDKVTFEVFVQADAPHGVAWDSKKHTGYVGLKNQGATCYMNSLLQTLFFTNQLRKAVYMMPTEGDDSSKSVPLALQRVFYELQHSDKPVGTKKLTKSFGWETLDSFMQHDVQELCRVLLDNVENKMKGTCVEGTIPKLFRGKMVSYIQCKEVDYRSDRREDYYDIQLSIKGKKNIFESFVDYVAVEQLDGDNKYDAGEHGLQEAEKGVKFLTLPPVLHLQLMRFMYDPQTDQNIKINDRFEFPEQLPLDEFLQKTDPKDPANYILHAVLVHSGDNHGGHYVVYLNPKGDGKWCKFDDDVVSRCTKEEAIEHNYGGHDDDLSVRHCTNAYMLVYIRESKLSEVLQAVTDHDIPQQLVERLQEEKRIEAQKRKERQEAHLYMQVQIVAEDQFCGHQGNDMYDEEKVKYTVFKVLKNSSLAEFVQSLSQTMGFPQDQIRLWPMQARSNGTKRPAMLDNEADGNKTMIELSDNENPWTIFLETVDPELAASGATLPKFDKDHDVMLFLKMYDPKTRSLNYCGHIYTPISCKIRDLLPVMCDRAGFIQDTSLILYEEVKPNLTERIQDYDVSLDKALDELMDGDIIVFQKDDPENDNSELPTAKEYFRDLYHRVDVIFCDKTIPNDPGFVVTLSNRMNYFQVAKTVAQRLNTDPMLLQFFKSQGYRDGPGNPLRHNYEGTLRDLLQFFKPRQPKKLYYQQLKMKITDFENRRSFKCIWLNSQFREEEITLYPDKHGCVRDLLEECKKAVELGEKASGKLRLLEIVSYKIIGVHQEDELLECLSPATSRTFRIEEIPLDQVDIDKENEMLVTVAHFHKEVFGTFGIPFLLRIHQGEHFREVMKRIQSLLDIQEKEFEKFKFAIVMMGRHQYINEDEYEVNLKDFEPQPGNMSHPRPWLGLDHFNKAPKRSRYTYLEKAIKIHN

Row | SMILES | EC50 [1] | EC50 [2] | IC50 [3] | IC50 [4]
1 | CS(=N)(=O)c1cccc(NC(=O)c2cc([N+](=O)[O-])c(Sc3c(Cl)cncc3Cl)s2)c1 (stereo not drawn) | 2000 nM | 2200 nM |  | 
2 | O=C(Nc1cccc(S(=O)(=O)C2CC2)c1)c1cc([N+](=O)[O-])c(Sc2c(Cl)cncc2Cl)s1 | 560 nM | 1590 nM |  | 
3 | CC1(C)CCC2(C(=O)O)CCC3=C([C@@H](CCl)C[C@@H]4[C@@]5(C)C[C@H](O)[C@H](O)[C@](C)(C(=O)O)[C@@H]5CC[C@]34C)[C@@H]2C1 (single isomer, unassigned) |  |  | > 50 µM | 
4 | CC1(C)CC[C@]2(C(=O)O)CC[C@]3(C)C(=CC[C@@H]4[C@@]5(C)CC[C@H](O)C(C)(C)[C@@H]5CC[C@]43C)[C@@H]2C1 [OLEANOLIC_ACID] |  |  | 12.5 µM | 
5 | O=C(NC1CCS(=O)(=O)C2COCCC12)c1cc([N+](=O)[O-])c(Sc2c(Cl)cncc2Cl)s1 (stereo not drawn) | 4800 nM | 4100 nM |  | 
6 | CC1CS(=O)(=O)c2cc(NC(=O)c3cc([N+](=O)[O-])c(Sc4c(Cl)cncc4Cl)s3)ccc21 (stereo not drawn) | 75 nM | 360 nM |  | 
7 | CS(=O)(=O)Nc1cccc(NC(=O)c2cc([N+](=O)[O-])c(Sc3c(Cl)cncc3Cl)s2)c1 | 640 nM | 1280 nM |  | 
8 | CCS(=O)(=O)c1cccc(NC(=O)c2cc([N+](=O)[O-])c(Sc3c(Cl)cncc3Cl)s2)c1 | 420 nM | 940 nM |  | 
9 | CS(=O)(=O)c1cccc(NC(=O)c2cc([N+](=O)[O-])c(Sc3c(Cl)cncc3Cl)s2)c1 | 510 nM | 1400 nM |  | 
10 | C[C@H]1[C@H](C)CC[C@]2(C(=O)O)CC[C@]3(C)C(=CC[C@@H]4[C@@]5(C)C[C@@H](O)[C@H](O)[C@@](C)(CO)[C@@H]5[C@H](O)C[C@]43C)[C@H]12 [MADECASSIC ACID] |  |  | > 50 µM | 
11 | CC1(C)[C@H](O)CC[C@]2(C)[C@H]3C(=O)C=C4[C@@H]5C[C@@](C)(C(=O)O)CC[C@]5(C)CC[C@]4(C)[C@@]3(C)CC[C@@H]12 |  |  | > 50 µM | 
12 | COCCNC1CS(=O)(=O)c2cc(NC(=O)c3cc([N+](=O)[O-])c(Sc4c(Cl)cncc4Cl)s3)ccc21 (stereo not drawn) | 790 nM | 2000 nM |  | 
13 | O=C(Nc1ccc2c(c1)S(=O)(=O)C=C2)c1cc([N+](=O)[O-])c(Sc2c(Cl)cncc2Cl)s1 | 100 nM | 1330 nM |  | 
14 | C=C(C)[C@@H]1CC[C@]2(C(=O)O)CC[C@]3(C)[C@H](CC[C@@H]4[C@@]5(C)CC[C@H](O)C(C)(C)[C@@H]5CC[C@]43C)[C@H]2C1 |  |  | 33.3 µM | 
15 | CC1CS(=N)(=O)c2cc(NC(=O)c3cc([N+](=O)[O-])c(Sc4c(Cl)cncc4Cl)s3)ccc21 (stereo not drawn) | 470 nM | 1100 nM |  | 
16 | CC1(C)CC[C@]2(C(=O)O)[C@H](O)C[C@]3(C)C(=CC[C@@H]4[C@@]5(C)C[C@H](O)[C@H](O)[C@@](C)(CO)[C@@H]5CC[C@]43C)[C@@H]2C1 |  |  | > 50 µM | 
17 | C=C(C)[C@@H]1CC[C@]2(C)CC[C@]3(C)[C@H](CC[C@@H]4[C@@]5(C)CC[C@H](O)C(C)(C)[C@@H]5CC[C@]43C)[C@H]2C1 |  |  | > 50 µM | 
18 | O=c1c2ccc(Cl)cc2ncn1CC1(O)CCN(CCCc2ccccc2)CC1 |  |  |  | > 100000 nM
19 | O=C(NC1CCS(=O)(=O)c2ccccc21)c1cc([N+](=O)[O-])c(Sc2c(Cl)cncc2Cl)s1 (stereo not drawn) | 810 nM | 1600 nM |  | 
20 | CC(=O)O[C@H]1CC[C@]2(C)[C@H]3CC=C4[C@@H]5[C@@H](C)[C@H](C)CC[C@]5(C(=O)O)CC[C@@]4(C)[C@]3(C)CC[C@H]2C1(C)C [O-ACETYLURSOLIC ACID] |  |  | > 50 µM | 
21 | CC1(C)CC[C@]2(C(=O)O)CC[C@]3(C)C(=CC[C@@H]4[C@@]5(C)C[C@H](O)[C@H](O)[C@@](C)(CO)[C@@H]5CC[C@]43C)[C@@H]2C1 |  |  | > 50 µM | 
22 | CC1(C)CC[C@]2(C(=O)O)CC[C@]3(C)C(=CC[C@@H]4[C@@]5(C)CC[C@H](O)[C@@](C)(CO)[C@@H]5CC[C@]43C)[C@@H]2C1 [HEDERAGENIN] |  |  | 33.5 µM | 
23 | CC(CC(=O)N1CCC(O)(Cn2cnc3cc(NC(=O)CCN4CCCCC4)ccc3c2=O)CC1)c1ccccc1 (stereo not drawn) |  |  |  | 350 nM
24 | O=C(Nc1cccc(S(=O)(=O)CC2CC2)c1)c1cc([N+](=O)[O-])c(Sc2c(Cl)cncc2Cl)s1 | 390 nM | 1500 nM |  | 

Row | SMILES | EC50 [1] | EC50 [2] | IC50 [3] | IC50 [4]
25 | O=C(CCc1ccccc1)N1CCC(Cn2cnc3cc(Cl)ccc3c2=O)CC1 |  |  |  | > 100000 nM
26 | CC(C)C(CC(=O)N1CCC(O)(Cn2cnc3cc(NC(=O)CCN4CCN(C)CC4)ccc3c2=O)CC1)c1ccccc1 (stereo not drawn) |  |  |  | 270 nM
27 | CC(CC(=O)N1CCC(O)(Cn2cnc3cc(NC(=O)CCn4ccnc4)ccc3c2=O)CC1)c1ccccc1 (stereo not drawn) |  |  |  | 240 nM
28 | C[C@H]1[C@H](C)CC[C@]2(C(=O)O)CC[C@]3(C)C(=CC[C@@H]4[C@@]5(C)C[C@@H](O)[C@H](O)[C@@](C)(CO)[C@@H]5CC[C@]43C)[C@H]12 [ASIATIC ACID] |  |  | > 50 µM | 
29 | N#Cc1cc(C(=O)Nc2ccc3c(c2)S(=O)(=O)C=C3)sc1Sc1c(Cl)cncc1Cl | 590 nM | 5100 nM |  | 
30 | C[C@H](CC(=O)N1CCC(O)(Cn2cnc3cc(NC(=O)CCN(C)C)ccc3c2=O)CC1)c1ccccc1 |  |  |  | 130 nM
31 | CC(CC(=O)N1CCC(O)(Cn2cnc3cc(NC(=O)CCN4CCN(C)CC4)ccc3c2=O)CC1)c1ccccc1 (stereo not drawn) |  |  |  | 560 nM
32 | C[C@H](CC(=O)N1CCC(O)(Cn2cnc3cc(NC(=O)CCN4CCOCC4)ccc3c2=O)CC1)c1ccccc1 |  |  |  | 480 nM
33 | C[C@H](CC(=O)N1CCC(O)(Cn2cnc3cc(NC(=O)CCN4CCN(C)CC4)ccc3c2=O)CC1)c1ccccc1 |  |  |  | 190 nM
34 | CN(C)CCNC1CS(=O)(=O)c2cc(NC(=O)c3cc([N+](=O)[O-])c(Sc4c(Cl)cncc4Cl)s3)ccc21 (stereo not drawn) | 220 nM | 200 nM |  | 
35 | CS(=O)(=O)c1ccccc1NC(=O)c1cc([N+](=O)[O-])c(Sc2c(Cl)cncc2Cl)s1 | 850 nM | 9300 nM |  | 
36 | CN(C)CCOc1ccc(NC(=O)c2cc([N+](=O)[O-])c(Sc3c(Cl)cncc3Cl)s2)cc1 | 500 nM | 450 nM |  | 
37 | O=C(CCc1ccccc1)N1CCC(O)(Cn2cnc3cc(Cl)ccc3c2=O)CC1 |  |  |  | 12000 nM
38 | O=C(Nc1ccc2c(c1)S(=O)(=O)CC2)c1cc([N+](=O)[O-])c(Sc2c(Cl)cncc2Cl)s1 | 130 nM | 2030 nM |  | 
39 | CC1=CS(=O)(=O)c2cc(NC(=O)c3cc([N+](=O)[O-])c(Sc4c(Cl)cncc4Cl)s3)ccc21 | 170 nM | 360 nM |  | 
40 | O=C(CCc1ccccc1)N1CCC(O)(Cn2cnc3cc(Cl)ccc3c2=O)C1 (stereo not drawn) |  |  |  | > 100000 nM
41 | O=C(NC1CCS(=O)(=O)CC1)c1cc([N+](=O)[O-])c(Sc2c(Cl)cncc2Cl)s1 | 2100 nM | 3500 nM |  | 
42 | COC(=O)[C@]12CC[C@@H](C)[C@H](C)[C@H]1C1=CC[C@@H]3[C@@]4(C)CC[C@H](O)C(C)(C)[C@@H]4CC[C@@]3(C)[C@]1(C)CC2 [METHYL URSOLATE] |  |  | > 50 µM | 
43 | CC(CC(=O)N1CCC(O)(Cn2cnc3cc(Cl)ccc3c2=O)CC1)c1ccccc1 (stereo not drawn) |  |  |  | 1300 nM
44 | C[C@@H](CC(=O)N1CCC(O)(Cn2cnc3cc(NC(=O)CCN4CCN(C)CC4)ccc3c2=O)CC1)c1ccccc1 |  |  |  | 7180 nM and 11000 nM
45 | O=C(c1cc([N+](=O)[O-])c(Sc2c(Cl)cncc2Cl)s1)N1CCS(=O)(=O)CC1 | 4300 nM | 6400 nM |  | 
46 | C[C@H]1[C@H](C)CC[C@]2(C(=O)O)CC[C@]3(C)C(=CC[C@@H]4[C@@]5(C)C[C@@H](O)[C@H](O)C(C)(C)[C@@H]5CC[C@]43C)[C@H]12 [COROSOLIC ACID] |  |  | 22.7 µM | 
47 | CS(=O)(=O)c1ccc(NC(=O)c2cc([N+](=O)[O-])c(Sc3c(Cl)cncc3Cl)s2)cc1 | 6800 nM | 11800 nM |  | 
